From US11390637B2, “Salts of antiviral phosphonate analogues and process for preparation thereof” (CIPLA LIMITED, priority 2017, dated 2022)

Legend:
[1] = In-vitro intrinsic dissolution of 200 mg pellets of API without excipients; assay type: physicochemical; settings: for % release of Compound (I) from the respective Salts: Table 8, 200 mg pellet, 0.01N HCl, 37° C., paddle 75 rpm
Procedure: A tableting mixture (200 mg) comprising solely salts of (((1-(6-amino-9H-purin-9-yl)propan-2-yloxy)methyl) (phenoxy) phosphoryloxy) methyl pivalate-prepared according to any one of the examples 1 to 10 (i.e. with no excipients) was prepared and compressed to a pellet using an automatic KBR press operating at a compression pressure of 2 tones for 2 minutes.
Similarly a tableting mixture (200 mg) comprising a solely TAF (i.e. with no excipients) was prepared and compressed to a pellet using an automatic KBR press operating at a compression pressure of 2 tones for 2 minutes.
A tableting mixture (200 mg) comprising solely TDF (i.e. with no excipients) was prepared and compressed to a pellet using an automatic KBR press operating at a compression pressure of 2 tones for 2 minutes.
In-vitro dissolution studies were performed on the 200 mg pellet in a LAB INDIA DISSO 2000.
The pellet was fixed in a PFTE holder, such that only the pellet surface came into contact with the dissolution medium. The PFTE loaded holder was placed in the dissolution vessel containing 900 ml of 0.1M of HCl having […] at 37±0.5° C. Two pellets were measured for each run of the design of the experiments. Stirring was performed with a paddle rotating at 75 rpm. […]
Dissolution Media: 0.01N HCl
Bath temperature: 37.5° C.
Sample Preparation: Pellets were prepared by pressing sample with 2 ton pressure for 2 min
Note: Aliquots were analysed on HPLC.
The concentration of (((1-(6-amino-9H-purin-9-yl)propan-2-yloxy)methyl) (phenoxy) phosphoryloxy) methyl pivalate was quantified by HPLC UV method at a maximum wavelength of 300 nm under the conditions as specified below:
Standard Preparation: 25 mg standard dissolved to 25 ml with dissolution medium. 5 ml of this solution diluted to 25 ml with dissolution medium. Further 5 ml of this solution was diluted to 10 ml with diluent.
Sample Preparation: 200 mg of Sample pellets were prepared and subjected to dissolution. 10 ml of Aliquot was removed from the dissolution basket at predetermined time intervals. 5 ml of these aliquot was diluted to 10 ml with Diluent.
200 mg of input API of fumarate salt of (((1-(6-amino-9H-purin-9-yl)propan-2-yloxy)methyl) (phenoxy) phosphoryloxy) methyl pivalate used for pellet preparation.
The percentage of (((1-(6-amino-9H-purin-9-yl)propan-2-yloxy)methyl) (phenoxy) phosphoryloxy) methyl pivalate (TD), Tenofovir Alafenamide (TAF) and Tenofovir Disoproxil (TDF) released from the respective fumarate salt tablet were plotted against time as shown in FIG. 19. The intrinsic dissolution rate was derived from the slope of this curve.
To measure the intrinsic dissolution of the Salts of (((1-(6-amino-9H-purin-9-yl)propan-2-yloxy)methyl) (phenoxy) phosphoryloxy) methyl pivalate, samples were measured to compare the influence of the different parameter settings. At appropriate time intervals, an automated sample collector removes aliquots from the dissolution medium for analysis. The time interval for sampling can vary, for example, from 5 to 120 minutes, depending on the properties of the drug and dissolution medium used. Suitable dissolution equipment for these operations includes LAB INDIA DISSO 2000. Bath temperature—37.5° C.
200 mg of input API of each fumarate, oxalate, phosphate, citrate, succinate and tartrate Salts of (((1-(6-amino-9H-purin-9-yl)propan-2-yloxy)methyl) (phenoxy) phosphoryloxy) methyl pivalate used for pellet preparation.
The percentage of (((1-(6-amino-9H-purin-9-yl)propan-2-yloxy)methyl) (phenoxy) phosphoryloxy) methyl pivalate released from the respective salts tablet were plotted against time as shown in FIG. 20. The intrinsic dissolution rate was derived from the slope of this curve.

[2] = Hygroscopicity (statement, no method described); assay type: physicochemical; settings: in words
[3] = Solubility in physiologically acceptable solvents (statement, no method described); settings: in words

**Q.** Which results are given for `CC(Cn1cnc2c(N)ncnc21)OCP(=O)(OCOC(=O)C(C)(C)C)Oc1ccccc1.O=P(O)(O)O` (centres unmarked) [Phosphate, (((1-(6-amino-9H-purin-9-yl)propan-2-yloxy)methyl) (phenoxy)phosphoryloxy) methyl pivalate phosphoric acid salt]?
**A.** % release of Compound (I) from the respective Salts ([1]; 5 min): 19%; % release of Compound (I) from the respective Salts ([1]; 15 min): 59%; % release of Compound (I) from the respective Salts ([1]; 30 min): 103%; % release of Compound (I) from the respective Salts ([1]; 45 min): 104%; % release of Compound (I) from the respective Salts ([1]; 60 min): 105%; % release of Compound (I) from the respective Salts ([1]; 90 min): 105%; % release of Compound (I) from the respective Salts ([1]; 120 min): 106%; % release of Compound (I) from the respective Salts ([1]; 150 min): 105%; % release of Compound (I) from the respective Salts ([1]; 180 min): 104%; % release of Compound (I) from the respective Salts ([1]; 210 min): 104%; % release of Compound (I) from the respective Salts ([1]; 240 min): 105%; dissolution profile compared to other salts ([1]; in words, from the data of Table 8): fastest dissolution profile; hygroscopicity [2]: not hygroscopic; solubility in physiologically acceptable solvents [3]: readily soluble
